From patent US6432952B1, “Polymorphic form of a tachykinin receptor antagonist” (Merck & Co., Inc., priority 1999, dated 2002) come the findings set out here.

Where two headings read alike, the source gives them in different places.

A short description of series [1]: Solubility in isopropyl acetate. The class given is physicochemical. As for the experimental part: Solubility The solubility of Form I of 2-(R)-(1-(R)-(3,5-bis(trifluoromethyl)-phenyl)ethoxy)-4-(5-(dimethylamino)methyl-1,2,3-triazol-4-yl)methyl-3-(S)-(4-fluorophenyl)morpholine hydrochloride in isopropyl acetate at 25° C. was determined to be 7.4±0.3 mg/ml.
Series [2] in a line: Stability of the crystalline form as neat solid. In kind it is physicochemical.
The test system of series [3] is retching and vomiting induced by cisplatin. Put plainly: Ferret model of cisplatin-induced emesis (Tattersall et al.). The class given is in vivo.

As for `C[C@@H](O[C@H]1OCCN(Cc2nn[nH]c2CN(C)C)[C@H]1c1ccc(F)cc1)c1cc(C(F)(F)F)cc(C(F)(F)F)c1.Cl` [Form I, 2-(R)-(1-(R)-(3,5-bis(trifluoromethyl)phenyl)ethoxy)-4-(5-(dimethylamino)methyl-1,2,3-triazol-4-yl)methyl-3-(S)-(4-fluorophenyl)morpholine hydrochloride], the solubility (commonly how much of the substance goes into solution per volume) was 10900 ± 1100 µg/mL in series [1] and 7400 ± 300 µg/mL in series [1] (25 °C, organic solvent or mixture, solubility). Further, in series [1] (at 25° C., isopropyl acetate), the “thermodynamic stability of Form I over Form II, from the ratio of the solubilities” value was “approximately 0.2 kcal/mol”. Further, the “thermodynamic stability relative to the other form” value in series [2] (Form I versus Form II) was “thermodynamically more stable than Form II”. In series [2] (as a neat solid), the thermal stability entry is “high degree of thermal stability”.
With `C[C@@H](O[C@H]1OCCN(Cc2nn[nH]c2CN(C)C)[C@H]1c1ccc(F)cc1)c1cc(C(F)(F)F)cc(C(F)(F)F)c1.Cl` [compound of the present invention, 2-(R)-(1-(R)-(3,5-bis(trifluoromethyl)phenyl)ethoxy)-4-(5-(dimethylamino)methyl-1,2,3-triazol-4-yl)methyl-3-(S)-(4-fluorophenyl)-morpholine hydrochloride], the “effect on retching and vomiting induced by cisplatin” value in series [3] is “attenuate the retching and vomiting induced by cisplatin”.
